Key:
HeLa cells [1] = assay type: cell-based, human
[2] = tested on: retrograde transport of Shiga toxin subunit B (StxB); assay type: cell-based
HeLa cells [3] = experiment: cells; assay type: cell-based; conditions: Homo sapiens

CCc1ccc(C2Nc3ccccc3C(=O)N2c2ccccc2)s1 (stereo not shown) [Compound 7, 2-(5-Ethylthiophen-2-yl)-3-phenyl-2,3-dihydroquinazolin-4(1H)-one]
R (Stx), protective index (HeLa cells [1]): 120
retrograde transport, % control [2]: 13.5%

O=C1c2ccccc2NC(c2ccc(Br)s2)N1c1ccccc1 (stereo not shown) [Compound 9, 2-(5-Bromothiophen-2-yl)-3-phenyl-2,3-dihydroquinazolin-4(1H)-one]
IC50 (HeLa cells [3]): 13.7 µM
R (Stx), protective index (HeLa cells [1]): 27.9

O=C1c2ccccc2NC(c2ccc(-c3ccccc3)s2)N1c1ccccc1 (stereo not shown) [Compound 13, 3-Phenyl-2-(5-phenylthiophen-2-yl)-2,3-dihydroquinazolin-4(1H)-one]
R (Stx), protective index (HeLa cells [1]): 153
retrograde transport, % control [2]: 13.1%

CSc1ccc(C2Nc3ccccc3C(=O)N2c2ccccc2)s1 (stereo not shown) [Compound 17, 2-(5-(Methylthio)thiophen-2-yl)-3-phenyl-2,3-dihydroquinazolin-4(1H)-one]
R (Stx), protective index (HeLa cells [1]): 43
retrograde transport, % control [2]: 22.8%

O=C1c2ccccc2NC(c2ccc(-c3cccs3)s2)N1c1ccccc1 (stereo not shown) [Compound 18, 2-([2,2′-Bithiophen]-5-yl)-3-phenyl-2,3-dihydroquinazolin-4(1H)-one]
R (Stx), protective index (HeLa cells [1]): 50
retrograde transport, % control [2]: 17.1%

O=C1c2ccccc2NC(c2ccc(-c3ccccn3)s2)N1c1ccccc1 (stereo not shown) [Compound 19, 3-Phenyl-2-(5-(pyridin-2-yl)thiophen-2-yl)-2,3-dihydroquinazolin-4(1H)-one]
R (Stx), protective index (HeLa cells [1]): 46
retrograde transport, % control [2]: 10.7%

O=C1c2ccccc2NC(c2ccc(-c3ccco3)s2)N1c1ccccc1 (stereo not shown) [Compound 20, 2-(5-(Furan-2-yl)thiophen-2-yl)-3-phenyl-2,3-dihydroquinazolin-4(1H)-one]
R (Stx), protective index (HeLa cells [1]): 41
retrograde transport, % control [2]: 6.5%

Cc1nc(-c2ccc(C3Nc4ccccc4C(=O)N3c3ccccc3)s2)cs1 (stereo not shown) [Compound 21, 2-(5-(2-Methylthiazol-4-yl)thiophen-2-yl)-3-phenyl-2,3-dihydroquinazolin-4(1H)-one]
R (Stx), protective index (HeLa cells [1]): 109
retrograde transport, % control [2]: 0.0%

Cc1ccc(C2Nc3ccc(F)cc3C(=O)N2c2ccccc2)s1 (stereo not shown) [Compound 25, 6-Fluoro-2-(5-methylthiophen-2-yl)-3-phenyl-2,3-dihydroquinazolin-4(1H)-one]
R (Stx), protective index (HeLa cells [1]): 133

CSc1ccccc1N1C(=O)c2ccccc2NC1c1ccc(C)s1 (stereo not shown) [Compound 31, 3-(2-(Methylthio)phenyl)-2-(5-methylthiophen-2-yl)-2,3-dihydroquinazolin-4(1H)-one]
R (Stx), protective index (HeLa cells [1]): 99

Cc1ccc(C2Nc3ccccc3C(=O)N2c2ccccc2Cl)s1 (stereo not shown) [Compound 32, 3-(2-Chlorophenyl)-2-(5-methylthiophen-2-yl)-2,3-dihydroquinazolin-4(1H)-one]
R (Stx), protective index (HeLa cells [1]): 68

Cc1nc(-c2ccc(C3Nc4ccc(F)cc4C(=O)N3c3ccccc3)s2)cs1 (stereo not shown) [Compound 34, 6-Fluoro-2-(5-(2-methylthiazol-4-yl)thiophen-2-yl)-3-phenyl-2,3-dihydroquinazolin-4(1H)-one]
R (Stx), protective index (HeLa cells [1]): 295

Cc1ccc(C2N(C)c3ccccc3C(=O)N2c2ccccc2)s1 (stereo not shown) [Compound 35, 1-Methyl-2-(5-methylthiophen-2-yl)-3-phenyl-2,3-dihydroquinazolin-4(1H)-one]
R (Stx), protective index (HeLa cells [1]): 80

CN1c2ccccc2C(=O)N(c2ccccc2)C1c1ccc(-c2ccccc2)s1 (stereo not shown) [Compound 36, 1-Methyl-3-phenyl-2-(5-phenylthiophen-2-yl)-2,3-dihydroquinazolin-4(1H)-one]
R (Stx), protective index (HeLa cells [1]): 29
retrograde transport, % control [2]: 7.1%

CN1c2ccccc2C(=O)N(c2ccccc2)C1c1ccc(-c2ccccn2)s1 (stereo not shown) [Compound 37, 1-Methyl-3-phenyl-2-(5-(pyridin-2-yl)thiophen-2-yl)-2,3-dihydroquinazolin-4(1H)-one]
R (Stx), protective index (HeLa cells [1]): 111
retrograde transport, % control [2]: 10.3%

CSc1ccc(C2N(C)c3ccccc3C(=O)N2c2ccccc2)s1 (stereo not shown) [Compound 38, 1-Methyl-2-(5-(methylthio)thiophen-2-yl)-3-phenyl-2,3-dihydroquinazolin-4(1H)-one]
R (Stx), protective index (HeLa cells [1]): 60
retrograde transport, % control [2]: 18.2%

CN1c2ccccc2C(=O)N(c2ccccc2)C1c1ccc(-c2cccs2)s1 (stereo not shown) [Compound 39, 2-([2,2′-Bithiophen]-5-yl)-1-methyl-3-phenyl-2,3-dihydroquinazolin-4(1H)-one]
R (Stx), protective index (HeLa cells [1]): 36
retrograde transport, % control [2]: 6.2%

CCc1ccc(C2N(C)c3ccccc3C(=O)N2c2ccccc2)s1 (stereo not shown) [Compound 41, 2-(5-Ethylthiophen-2-yl)-1-methyl-3-phenyl-2,3-dihydroquinazolin-4(1H)-one]
R (Stx), protective index (HeLa cells [1]): 173
retrograde transport, % control [2]: 0.0%

Cc1nc(-c2ccc(C3N(C)c4ccccc4C(=O)N3c3ccccc3)s2)cs1 (stereo not shown) [Compound 42, 1-Methyl-2-(5-(2-methylthiazol-4-yl)thiophen-2-yl)-3-phenyl-2,3-dihydroquinazolin-4(1H)-one]
R (Stx), protective index (HeLa cells [1]): 85
retrograde transport, % control [2]: 0.0%

CN1c2ccccc2C(=O)N(c2ccccc2)C1c1ccc(Br)s1 (stereo not shown) [Compound 43, 2-(5-Bromothiophen-2-yl)-1-methyl-3-phenyl-2,3-dihydroquinazolin-4(1H)-one]
R (Stx), protective index (HeLa cells [1]): 40

CN1c2ccccc2C(=O)N(c2ccccc2)C1c1ccc(Sc2ccccc2)s1 (stereo not shown) [Compound 44, 1-Methyl-3-phenyl-2-(5-(phenylthio)thiophen-2-yl)-2,3-dihydroquinazolin-4(1H)-one]
R (Stx), protective index (HeLa cells [1]): 71

CN1c2ccccc2C(=O)N(c2ccccc2)C1c1ccc(-c2ccoc2)s1 (stereo not shown) [Compound 47, 2-(5-(Furan-3-yl)thiophen-2-yl)-1-methyl-3-phenyl-2,3-dihydroquinazolin-4(1H)-one]
R (Stx), protective index (HeLa cells [1]): 49

Cc1ccc(C2N(C)c3ccccc3C(=O)N2c2ccccc2Cl)s1 (stereo not shown) [Compound 54, 3-(2-Chlorophenyl)-1-methyl-2-(5-methylthiophen-2-yl)-2,3-dihydroquinazolin-4(1H)-one]
IC50 (HeLa cells [3]): 8.2 µM
R (Stx), protective index (HeLa cells [1]): 27

Cc1ccc(C2N(C)c3ccccc3C(=O)N2c2ccccc2I)s1 (stereo not shown) [Compound 55, 3-(2-Iodophenyl)-1-methyl-2-(5-methylthiophen-2-yl)-2,3-dihydroquinazolin-4(1H)-one]
IC50 (HeLa cells [3]): 5.4 µM
R (Stx), protective index (HeLa cells [1]): 25

COc1ccccc1N1C(=O)c2ccccc2N(C)C1c1ccc(C)s1 (stereo not shown) [Compound 56, 3-(2-Methoxyphenyl)-1-methyl-2-(5-methylthiophen-2-yl)-2,3-dihydroquinazolin-4(1H)-one]
IC50 (HeLa cells [3]): 5.4 µM
R (Stx), protective index (HeLa cells [1]): 26

CSc1ccccc1N1C(=O)c2ccccc2N(C)C1c1ccc(C)s1 (stereo not shown) [Compound 57, 1-Methyl-3-(2-(methylthio)phenyl)-2-(5-methylthiophen-2-yl)-2,3-dihydroquinazolin-4(1H)-one]
IC50 (HeLa cells [3]): 3.8 µM
R (Stx), protective index (HeLa cells [1]): 25

Cc1ccc(C2N(C)c3ccccc3C(=O)N2c2ccccc2F)s1 (stereo not shown) [Compound 58, 3-(2-Fluorophenyl)-1-methyl-2-(5-methylthiophen-2-yl)-2,3-dihydroquinazolin-4(1H)-one]
IC50 (HeLa cells [3]): 5.5 µM
R (Stx), protective index (HeLa cells [1]): 25

Cc1ccc(C2N(C)c3ccccc3C(=O)N2c2ccccc2-c2ccccc2)s1 (stereo not shown) [Compound 59, 3-([1,1′-Biphenyl]-2-yl)-1-methyl-2-(5-methylthiophen-2-yl)-2,3-dihydroquinazolin-4(1H)-one]
IC50 (HeLa cells [3]): 3.7 µM
R (Stx), protective index (HeLa cells [1]): 27

Cc1ccc(C2N(C)c3ccccc3C(=O)N2c2ccccc2S(=O)(=O)c2ccccc2)s1 (stereo not shown) [Compound 60, 1-Methyl-2-(5-methylthiophen-2-yl)-3-(2-(phenylsulfonyl)phenyl)-2,3-dihydroquinazolin-4(1H)-one]
R (Stx), protective index (HeLa cells [1]): 320

Cc1nc(-c2ccc(C3N(C)c4ccc(F)cc4C(=O)N3c3ccccc3)s2)cs1 (stereo not shown) [Compound 61, 6-Fluoro-1-methyl-2-(5-(2-methylthiazol-4-yl)thiophen-2-yl)-3-phenyl-2,3-dihydroquinazolin-4(1H)-one]
R (Stx), protective index (HeLa cells [1]): 40

CN1c2ccccc2C(=O)N(c2ccccc2)C1c1ccc(CN=[N+]=[N-])s1 (stereo not shown) [Compound 62, 2-(5-(Azidomethyl)thiophen-2-yl)-1-methyl-3-phenyl-2,3-dihydroquinazolin-4(1H)-one]
IC50 (HeLa cells [3]): 12 µM

CN1c2ccccc2C(=O)N(c2ccccc2)C1c1ccc(-c2csc(CN=[N+]=[N-])n2)s1 (stereo not shown) [Compound 63, 2-(5-(2-(Azidomethyl)thiazol-4-yl)thiophen-2-yl)-1-methyl-3-phenyl-2,3-dihydroquinazolin-4(1H)-one]
IC50 (HeLa cells [3]): 3 to 5 µM

CN1c2ccc(F)cc2C(=O)N(c2ccccc2)C1c1ccc(-c2csc(CN=[N+]=[N-])n2)s1 (stereo not shown) [Compound 64, 2-(5-(2-(Azidomethyl)thiazol-4-yl)thiophen-2-yl)-6-fluoro-1-methyl-3-phenyl-2,3-dihydroquinazolin-4(1H)-one]
IC50 (HeLa cells [3]): < 3 µM

Cc1nc(-c2ccc(C3N(C)c4ccccc4C(=O)N3c3ccccc3C(=O)c3ccccc3)s2)cs1 (stereo not shown) [Compound 65, 3-(2-Benzoylphenyl)-1-methyl-2-(5-(2-methylthiazol-4-yl)thiophen-2-yl)-2,3-dihydroquinazolin-4(1H)-one]
IC50 (HeLa cells [3]): 1 to 3 µM

Cc1nc(-c2ccc(C3N(C)c4ccc(F)cc4C(=O)N3c3ccccc3C(=O)c3ccccc3)s2)cs1 (stereo not shown) [Compound 66]
IC50 (HeLa cells [3]): 1 µM

C=CCOC(=O)c1ccccc1N1C(=O)c2ccccc2N(C)C1c1ccc(C)s1 (stereo not shown) [Compound 67, Allyl 2-(1-methyl-2-(5-methylthiophen-2-yl)-4-oxo-1,4-dihydroquinazolin-3(2H)-yl)benzoate]
IC50 (HeLa cells [3]): 13 µM

COCCOc1ccccc1N1C(=O)c2ccccc2N(C)C1c1ccc(C)s1 (stereo not shown) [Compound 68, 3-(2-(2-Methoxyethoxy)phenyl)-1-methyl-2-(5-methylthiophen-2-yl)-2,3-dihydroquinazolin-4(1H)-one]
IC50 (HeLa cells [3]): 4.2 µM

Cc1ccc(C2N(C)c3ccccc3C(=O)N2c2ccccc2C(=O)O)s1 (stereo not shown) [Compound 69, 2-(1-Methyl-2-(5-methylthiophen-2-yl)-4-oxo-1,4-dihydroquinazolin-3(2H)-yl)benzoic acid]
IC50 (HeLa cells [3]): 11.2 µM

— patent US9540356B2 (priority 2012, dated 2017)
